From US6897244B2, “Dihydronootkatone and tetrahydronootkatone as repellents to arthropods” (Board of Supervisors of Louisiana State University and …, priority 2002, dated 2005)
“Also recorded” adds a separate entry of the source.

Tests used:
[1] = test system: Formosan subterranean termites; assay: Petri dish treated/untreated sand bioassay for repelling activity against termites; assay type: in vivo, Coptotermes formosanus; parameters: key to percent of termites on untreated sand vs expected value of 50% (Chi-Square, p≦0.05): “−” indicates the test was not significantly different from the expected value; “+” indicates the test was significantly different from the expected value
Experimental: A carton nest (colony A) of Formosan subterranean termites was collected in Algiers, Louisiana in November 1997, and held in 250-liter cans. The cans were filled with pine as a food source, and kept at a temperature range of 24-26° C. Moistened corrugated cardboard rolls were used to retrieve termites from the cans. Once the termites migrated to the cardboard rolls, they were gently knocked from the cardboard rolls into clean rectangular plastic trays (40 cm×50 cm). Retrieved termites were isolated from debris by allowing them to cling to sheets of moistened paper towels. The average weight of each termite was 1.21 mg.
To test for effectiveness of nootkatone, 1,10-dihydronootkatone and tetrahydronootkatone in repelling termites, a bioassay was conducted using Petri dishes (5 cm diameter and 1 cm height). To ensure adequate moisture for the termites, 1 ml of a hot agar solution (1.5% in H2O) was spread on the bottom of the Petri dish. After the agar cooled, sand that was treated as described below was spread on the bottom of the Petri dish. For the treated sand, purified 1,10-dihydronootkatone or tetrahydronootkatone were dissolved in 2 ml ethanol, and then diluted to achieve final concentrations of 1, 2, 5, 12.5, 25, 50, and 100 μg/g sand. The solution was mixed with 1 g sand that had been autoclaved and cooled. The control sand was autoclaved sand with only 200 μl ethanol added. One half of the surfaces in the Petri dishes were covered with 1 g treated sand, and the other half with 1 g untreated sand.
The prepared Petri dishes were then used to evaluate the repelling activity against Formosan subterranean termites. Ten worker termites were added to each Petri dish, and the dishes were covered to eliminate light. Five replicate dishes were tested for each concentration and for the control. Termite position was recorded every 15 min during the first hour of testing by counting the number of termites observed on untreated sand. After the first hour, termite position was recorded each hour for 3 hr.
Differences between the percent of termites on untreated sand and an expected value were statistically analyzed by a Chi-Square analysis, using an expected value of 50% and a significance level of p≦0.05.

[2] = test system: salt marsh mosquitoes, Aedes vexans; assay: Mosquito bites on arm treated topically with 5% solution, placed in mosquito cage; assay type: in vivo; settings: for Number of Mosquito Bites in a 2 min Period: arm treated with 5 ml of 5% solution
Experimental: To test the repellence of tetrahydronootkatone on mosquitos, tetrahydronootkatone was dissolved in 70% isopropyl alcohol to a final concentration of 5%. This solution was used to topically apply to the arms of two male volunteers. Each volunteer cleaned each arm thoroughly with soap and water, and then wiped down each arm with 70% isopropyl alcohol. The right arm of each volunteer was treated with 5 ml of the 5% tetrahydronootkatone solution. The left arm served as a control. To test for mosquito repellence, each arm of a single volunteer was placed into a cage of freshly collected mosquitoes, about 100 mosquitos per cage. The mosquitoes were salt marsh mosquitoes, Aedes […]. After 2 min, the number of mosquito bites on each arm were counted. Tests were run at 5 min, 1 hr, 2 hr, and 3 hr after the initial application of tetrahydronootkatone.

[3] = test system: biting midges (family Ceratopogonidae, genus Culicoides); assay: Field test of 5% solution applied to faces against biting midges in a marsh; assay type: in vivo; settings: 5% solution in 70% isopropyl alcohol applied to faces of two volunteers
Experimental: To test the repellence of tetrahydronootkatone on biting midges (family Ceratopogonidae, genus Culicoides), tetrahydronootkatone was dissolved in 70% isopropyl alcohol to a final concentration of 5%. This solution was used to topically apply to the faces of two adult male volunteers. […] The six males went into a southern Louisiana marsh, an area known for biting midges.

## CC(C)C1CCC2CC(=O)CC(C)C2(C)C1 (stereo not drawn) [Tetrahydronootkatone, 1,4,4a,5,6,7,8,10-octahydro-6-isopropl-4,4a-dimethyl-2(1H)-naphthalenone]
[1]; 1 μg/dish, 0.25 hour
  percent of termites on untreated sand vs expected value of 50% (Chi-Square, p≦0.05): −
[1]; 1 μg/dish, 0.5 hour
  percent of termites on untreated sand vs expected value of 50% (Chi-Square, p≦0.05): −
[1]; 1 μg/dish, 0.75 hour
  percent of termites on untreated sand vs expected value of 50% (Chi-Square, p≦0.05): −
[1]; 1 μg/dish, 1 hour
  percent of termites on untreated sand vs expected value of 50% (Chi-Square, p≦0.05): −
[1]; 1 μg/dish, 2 hour
  percent of termites on untreated sand vs expected value of 50% (Chi-Square, p≦0.05): −
[1]; 1 μg/dish, 3 hour
  percent of termites on untreated sand vs expected value of 50% (Chi-Square, p≦0.05): −
[1]; 2 μg/dish, 0.25 hour
  percent of termites on untreated sand vs expected value of 50% (Chi-Square, p≦0.05): +
[1]; 2 μg/dish, 0.5 hour
  percent of termites on untreated sand vs expected value of 50% (Chi-Square, p≦0.05): +
[1]; 2 μg/dish, 0.75 hour
  percent of termites on untreated sand vs expected value of 50% (Chi-Square, p≦0.05): +
[1]; 2 μg/dish, 1 hour
  percent of termites on untreated sand vs expected value of 50% (Chi-Square, p≦0.05): +
[1]; 2 μg/dish, 2 hour
  percent of termites on untreated sand vs expected value of 50% (Chi-Square, p≦0.05): +
[1]; 2 μg/dish, 3 hour
  percent of termites on untreated sand vs expected value of 50% (Chi-Square, p≦0.05): +
[1]; 5 μg/dish, 0.25 hour
  percent of termites on untreated sand vs expected value of 50% (Chi-Square, p≦0.05): −
[1]; 5 μg/dish, 0.5 hour
  percent of termites on untreated sand vs expected value of 50% (Chi-Square, p≦0.05): +
[1]; 5 μg/dish, 0.75 hour
  percent of termites on untreated sand vs expected value of 50% (Chi-Square, p≦0.05): +
[1]; 5 μg/dish, 1 hour
  percent of termites on untreated sand vs expected value of 50% (Chi-Square, p≦0.05): +
[1]; 5 μg/dish, 2 hour
  percent of termites on untreated sand vs expected value of 50% (Chi-Square, p≦0.05): +
[1]; 5 μg/dish, 3 hour
  percent of termites on untreated sand vs expected value of 50% (Chi-Square, p≦0.05): +
[1]; 12.5 μg/dish, 0.25 hour
  percent of termites on untreated sand vs expected value of 50% (Chi-Square, p≦0.05): +
[1]; 12.5 μg/dish, 0.5 hour
  percent of termites on untreated sand vs expected value of 50% (Chi-Square, p≦0.05): +
[1]; 12.5 μg/dish, 0.75 hour
  percent of termites on untreated sand vs expected value of 50% (Chi-Square, p≦0.05): +
[1]; 12.5 μg/dish, 1 hour
  percent of termites on untreated sand vs expected value of 50% (Chi-Square, p≦0.05): +
[1]; 12.5 μg/dish, 2 hour
  percent of termites on untreated sand vs expected value of 50% (Chi-Square, p≦0.05): +
[1]; 12.5 μg/dish, 3 hour
  percent of termites on untreated sand vs expected value of 50% (Chi-Square, p≦0.05): +
[1]; 25 μg/dish, 0.25 hour
  percent of termites on untreated sand vs expected value of 50% (Chi-Square, p≦0.05): −
[1]; 25 μg/dish, 0.5 hour
  percent of termites on untreated sand vs expected value of 50% (Chi-Square, p≦0.05): +
[1]; 25 μg/dish, 0.75 hour
  percent of termites on untreated sand vs expected value of 50% (Chi-Square, p≦0.05): +
[1]; 25 μg/dish, 1 hour
  percent of termites on untreated sand vs expected value of 50% (Chi-Square, p≦0.05): +
[1]; 25 μg/dish, 2 hour
  percent of termites on untreated sand vs expected value of 50% (Chi-Square, p≦0.05): +
[1]; 25 μg/dish, 3 hour
  percent of termites on untreated sand vs expected value of 50% (Chi-Square, p≦0.05): +
[1]; 50 μg/dish, 0.25 hour
  percent of termites on untreated sand vs expected value of 50% (Chi-Square, p≦0.05): +
[1]; 50 μg/dish, 0.5 hour
  percent of termites on untreated sand vs expected value of 50% (Chi-Square, p≦0.05): +
[1]; 50 μg/dish, 0.75 hour
  percent of termites on untreated sand vs expected value of 50% (Chi-Square, p≦0.05): +
[1]; 50 μg/dish, 1 hour
  percent of termites on untreated sand vs expected value of 50% (Chi-Square, p≦0.05): +
[1]; 50 μg/dish, 2 hour
  percent of termites on untreated sand vs expected value of 50% (Chi-Square, p≦0.05): +
[1]; 50 μg/dish, 3 hour
  percent of termites on untreated sand vs expected value of 50% (Chi-Square, p≦0.05): +
[1]; 100 μg/dish, 0.25 hour
  percent of termites on untreated sand vs expected value of 50% (Chi-Square, p≦0.05): +
[1]; 100 μg/dish, 0.5 hour
  percent of termites on untreated sand vs expected value of 50% (Chi-Square, p≦0.05): +
[1]; 100 μg/dish, 0.75 hour
  percent of termites on untreated sand vs expected value of 50% (Chi-Square, p≦0.05): +
[1]; 100 μg/dish, 1 hour
  percent of termites on untreated sand vs expected value of 50% (Chi-Square, p≦0.05): +
[1]; 100 μg/dish, 2 hour
  percent of termites on untreated sand vs expected value of 50% (Chi-Square, p≦0.05): +
[1]; 100 μg/dish, 3 hour
  percent of termites on untreated sand vs expected value of 50% (Chi-Square, p≦0.05): +
[1]; relative to nootkatone
  factor by which the effective termite-repellent concentration is lower than that of nootkatone: 50
[1]; time periods up to 3 hr
  concentration effective as termite repellent: 2 µg
[2]; 5% solution, time periods up to 3 hr after the initial application
  mosquito repellence: effective mosquito repellent
[2]; Volunteer 1, 5 min after application
  Number of Mosquito Bites in a 2 min Period: 0
[2]; Volunteer 1, 1 hr after application
  Number of Mosquito Bites in a 2 min Period: 0
[2]; Volunteer 1, 2 hr after application
  Number of Mosquito Bites in a 2 min Period: 0
[2]; Volunteer 1, 3 hr after application
  Number of Mosquito Bites in a 2 min Period: 0
[2]; Volunteer 2, 5 min after application
  Number of Mosquito Bites in a 2 min Period: 0
[2]; Volunteer 2, 1 hr after application
  Number of Mosquito Bites in a 2 min Period: 0
[2]; Volunteer 2, 2 hr after application
  Number of Mosquito Bites in a 2 min Period: 0
[2]; Volunteer 2, 3 hr after application
  Number of Mosquito Bites in a 2 min Period: 2
[3]
  repellence of biting midges: fewer problems with biting midges; also recorded: effective repellent for biting midges
